Source: US20170119776A1, “CHIRAL 2,5-DISUBSTITUTED CYCLOPENTANECARBOXYLIC ACID DERIVATIVES AND USE THEREOF” (BAYER PHARMA AKTIENGESELLSCHAFT, priority 2014, published 2017)

Columns and labels:
Assay type in all cases: biochemical
MMP-8 of the mouse = target: T1, MMP-8 of the mouse (Mus musculus, UniProt O70138); experiment: In vitro MMP-8 inhibition test of the mouse
T1 construct: purchased R&D Systems 2904-MP
Source text: (§1) The activity strength of the compounds according to the invention towards other MMPs (and therefore their selectivity) is likewise ascertained in in vitro inhibition tests. The MMP-mediated amidolytic cleavage of a suitable peptide substrate also leads here to a fluorescent light increase. The signal intensity of the fluorescent light is directly proportional to the enzyme activity. The active concentration of a test compound at which half of the enzyme is inhibited (50% signal intensity of the fluorescent light) is given as IC50 value.
(§2) Recombinant MMP-8 of the mouse (R&D Systems, 2904-MP) is chemically activated in accordance with the manufacturer's instructions using APMA. 1 μl of the test compound to be analysed (as a solution in DMSO, suitable concentrations e.g. 1 nM to 30 μM) is pipetted into 24 μl of activated enzyme (final concentration e.g. 2 nM) in reaction buffer (50 mM Tris/HCl pH 7.5, 10 mM CaCl2, 150 mM NaCl, 0.05% Brij®-35) in a white 384-hole microtiter plate (MTP). The enzymatic reaction is started by adding the intramolecularly quenched substrate Mca-Lys-Pro-Leu-Gly-Leu-Dpa(Dnp)-Ala-Arg-NH2 (final concentration e.g. 5 μM; R&D Systems, ES-010), such that a total test volume of 50 μl results. The progress of the MMP-8 reaction is measured by measuring the fluorescence intensity (excitation 320 nm, emission 410 nm) over a suitable period (e.g. over 120 min at a temperature of 32° C.).
Tables 3A and 3B below give the IC50 values from these tests for the inhibition of rodent MMPs for representative embodiment examples of the present invention and also for two structurally related comparison compounds from the prior art (as racemate and separated enantiomer)→(in part as average values from several independent individual determinations and rounded to two significant places). The IC50 values were determined for racemates and enantiomers from differently generated DMSO stock solutions. Whereas an automatically created DMSO stock solution from the internal substance logistics was used for racemates by means of a standard method, in the case of enantiomers, in each case a freshly produced, manually prepared DMSO stock solution was used for a more precise direct comparison of the enantiomers with one another.

MMP-3 = target: T2, MMP-3 (Homo sapiens, UniProt P08254); experiment: In vitro MMP-3 inhibition test
T2 construct: purchased R&D Systems 513-MP
T2 sequence (P08254 100-477): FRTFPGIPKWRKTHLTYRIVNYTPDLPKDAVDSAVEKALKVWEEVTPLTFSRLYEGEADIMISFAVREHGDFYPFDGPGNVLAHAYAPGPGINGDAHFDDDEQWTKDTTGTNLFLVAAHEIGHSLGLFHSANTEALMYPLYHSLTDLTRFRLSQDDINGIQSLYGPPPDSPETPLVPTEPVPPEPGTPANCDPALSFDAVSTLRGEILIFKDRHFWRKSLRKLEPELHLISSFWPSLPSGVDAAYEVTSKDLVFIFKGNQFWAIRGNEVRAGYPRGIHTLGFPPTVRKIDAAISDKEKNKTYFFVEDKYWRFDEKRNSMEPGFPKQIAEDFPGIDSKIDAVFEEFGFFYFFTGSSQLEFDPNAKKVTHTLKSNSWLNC
Source text: as §1
as §2, with “Recombinant MMP-3” for “Recombinant MMP-8 of the mouse”, “Systems, 513-MP)” for “Systems, 2904-MP)”, “substrate Mca-Arg-Pro-Lys-Pro-Val-Glu-Nval-Trp-Arg-Lys(Dnp)-NH2” for “substrate Mca-Lys-Pro-Leu-Gly-Leu-Dpa(Dnp)-Ala-Arg-NH2”, “e.g. 10” for “e.g. 5”, “Systems, ES-002),” for “Systems, ES-010),”, “the MMP-3” for “the MMP-8”
(§3) The IC50 values were determined for racemates and enantiomers from differently generated DMSO stock solutions. Whereas an automatically produced DMSO stock solution from the internal substance logistics was used for racemates by means of a standard method, in the case of enantiomers a freshly produced, manually prepared DMSO stock solution was used in each case for a more precise direct comparison of the enantiomers with one another.

MMP-2 = target: T3, MMP-2 (Homo sapiens, UniProt P08253); experiment: In vitro MMP-2 inhibition test
T3 construct: purchased R&D Systems 902-MP
T3 sequence (P08253 110-660): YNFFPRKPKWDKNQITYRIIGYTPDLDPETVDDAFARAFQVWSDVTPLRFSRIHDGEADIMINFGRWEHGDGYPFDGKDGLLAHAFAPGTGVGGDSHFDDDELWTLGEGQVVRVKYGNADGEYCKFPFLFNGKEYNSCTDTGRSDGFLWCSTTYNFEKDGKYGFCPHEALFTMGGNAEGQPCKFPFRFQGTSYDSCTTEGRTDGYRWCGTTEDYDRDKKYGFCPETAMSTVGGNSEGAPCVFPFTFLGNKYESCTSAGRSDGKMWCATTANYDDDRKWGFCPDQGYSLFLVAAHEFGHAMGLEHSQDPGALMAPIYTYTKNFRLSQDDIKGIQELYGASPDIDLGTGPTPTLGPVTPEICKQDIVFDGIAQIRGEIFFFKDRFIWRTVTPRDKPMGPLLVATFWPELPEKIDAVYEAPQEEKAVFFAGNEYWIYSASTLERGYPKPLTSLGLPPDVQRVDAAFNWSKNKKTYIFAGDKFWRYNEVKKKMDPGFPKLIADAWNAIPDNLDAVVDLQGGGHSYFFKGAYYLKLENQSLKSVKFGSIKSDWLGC
Source text: as §1
as §2, with “Recombinant MMP-2” for “Recombinant MMP-8 of the mouse”, “Systems, 902-MP)” for “Systems, 2904-MP)”, “substrate Mca-Pro-Leu-Gly-Leu-Dpa(Dnp)-Ala-Arg-NH2” for “substrate Mca-Lys-Pro-Leu-Gly-Leu-Dpa(Dnp)-Ala-Arg-NH2”, “e.g. 10” for “e.g. 5”, “Systems, ES-001),” for “Systems, ES-010),”, “the MMP-2” for “the MMP-8”
as §3

T1 sequence (O70138 101-465): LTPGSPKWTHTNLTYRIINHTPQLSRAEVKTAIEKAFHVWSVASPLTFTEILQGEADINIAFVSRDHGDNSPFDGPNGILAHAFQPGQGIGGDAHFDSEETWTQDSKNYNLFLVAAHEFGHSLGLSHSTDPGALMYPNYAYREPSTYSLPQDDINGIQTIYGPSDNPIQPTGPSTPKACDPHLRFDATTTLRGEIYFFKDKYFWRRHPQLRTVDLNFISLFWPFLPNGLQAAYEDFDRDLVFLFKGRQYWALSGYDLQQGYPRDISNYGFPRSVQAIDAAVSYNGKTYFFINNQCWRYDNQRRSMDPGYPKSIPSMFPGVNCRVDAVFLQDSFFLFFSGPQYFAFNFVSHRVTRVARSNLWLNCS

Compound	IC50 (MMP-8 of the mouse) [nM]	IC50 (MMP-3) [nM]	IC50 (MMP-2) [nM]
O=C(O)[C@H]1[C@H](Cn2nnc3ccccc3c2=O)CC[C@@H]1C(=O)c1ccc(-c2ccc(Cl)cc2)cc1 (racemic) [Comparative Example A-1, (1RS,2RS,5SR)-2-[(4′-chlorobiphenyl-4-yl)carbonyl]-5-[(4-oxo-1,2,3-benzotriazin-3(4H)-yl)methyl]cyclopentanecarboxylic acid (racemate)]	1.1	49	1.1
O=C(O)[C@@H]1[C@@H](Cn2nnc3ccccc3c2=O)CC[C@H]1C(=O)c1ccc(-c2ccc(Cl)cc2)cc1 (single isomer, unassigned; enantiomer 2) [Comparative Example A-3, (1RS,2RS,5SR)-2-[(4′-Chlorobiphenyl-4-yl)carbonyl]-5-[(4-oxo-1,2,3-benzotriazin-3(4H)-yl)methyl]cyclopentanecarboxylic acid (enantiomer 2)]	< 0.61	22.5	0.7
O=C(O)[C@H]1[C@H](Cn2nnc3ccccc3c2=O)CC[C@@H]1C(=O)c1ccc(OCc2ccccc2)cc1 [Example 2, (+)-(1S,2S,5R)-2-[4-(Benzyloxy)benzoyl]-5-[(4-oxo-1,2,3-benzotriazin-3(4H)-yl)methyl]cyclopentanecarboxylic acid]	34.5	175	11.8

Now from value to compound:

IC50 (MMP-8 of the mouse) [nM]	IC50 (MMP-3) [nM]	IC50 (MMP-2) [nM]	Compound
71	390	18	O=C(O)[C@H]1[C@H](Cn2nnc3ccccc3c2=O)CC[C@@H]1C(=O)c1ccc(OCc2ccccc2)cc1 (racemic) [Example 1, (+/−)-(1RS,2RS,5SR)-2-[4-(Benzyloxy)benzoyl]-5-[(4-oxo-1,2,3-benzotriazin-3(4H)-yl)methyl]cyclopentanecarboxylic acid (racemate)]
2300	9150	450	CCCCCOc1ccc(C(=O)CC(CCn2nnc3ccccc3c2=O)C(=O)O)cc1 (racemic) [Comparative Example B-1, (+/−)-4-Oxo-2-[2-(4-oxo-1,2,3-benzotriazin-3(4H)-yl)ethyl]-4-[4-(pentyloxy)phenyl]butanoic acid (racemate)]
1080	6600	120	CCCCCOc1ccc(C(=O)CC(CCn2nnc3ccccc3c2=O)C(=O)O)cc1 (single isomer, unassigned; enantiomer 1) [Comparative Example B-2, (+)-4-Oxo-2-[2-(4-oxo-1,2,3-benzotriazin-3(4H)-yl)ethyl]-4-[4-(pentyloxy)phenyl]butanoic acid (enantiomer 1)]
